Experiments:
[1] = target: T1, MAP kinase-activated protein kinase 2 (Homo sapiens, UniProt P49137); assay: Inhibition of human MK2 using hsp27 peptide biotinyl-AYSRALSRQLSSGVSEIRCOOH as substrate after 45 mins by FRET assay
PBMC = assay: Antiinflammatory activity against LPS-induced TNFalpha release in human PBMC preincubated for 30 mins measured after 3 hrs of LPS stimulation; type: functional, cell-based
[2] = target: T1, MAP kinase-activated protein kinase 2; assay: Inhibition of MK2 in human THP-1 cells assessed as inhibition of anisomycin stimulated ser78-hsp27 phosphorylation after 10 mins by FACS analysis; type: cell-based
[3] = target: Mitogen-activated protein kinase 9 (Homo sapiens, UniProt P45984); assay: Inhibition of JNK2
Mus musculus = assay: Antiinflammatory activity in OFI mouse assessed as inhibition of LPS-induced TNFalpha release at 100 mg/kg, po dosed 1 hr before LPS challenge and measured after 1 hr post LPS challenge by ELISA; type: functional
[4] = Drug level in LPS-stimulated OFI mouse plasma at 100 mg/kg, po after 2 hrs by LC-MS/MS analysis; type: ADME, organism-based; parameters: dose 100 mg/kg, route oral

T1 sequence (P49137 whole entry): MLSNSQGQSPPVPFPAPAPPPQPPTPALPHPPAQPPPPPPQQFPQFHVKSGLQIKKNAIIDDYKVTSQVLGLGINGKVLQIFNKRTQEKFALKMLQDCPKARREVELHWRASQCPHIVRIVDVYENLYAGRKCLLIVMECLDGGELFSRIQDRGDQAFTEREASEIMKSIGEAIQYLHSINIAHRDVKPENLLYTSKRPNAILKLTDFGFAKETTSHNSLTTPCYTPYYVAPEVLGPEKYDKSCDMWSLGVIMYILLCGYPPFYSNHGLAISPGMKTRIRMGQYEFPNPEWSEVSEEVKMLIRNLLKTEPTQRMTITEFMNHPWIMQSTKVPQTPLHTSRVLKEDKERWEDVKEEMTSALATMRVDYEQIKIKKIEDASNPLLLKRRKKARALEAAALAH
Chain of Mitogen-activated protein kinase 9 (P45984 whole entry): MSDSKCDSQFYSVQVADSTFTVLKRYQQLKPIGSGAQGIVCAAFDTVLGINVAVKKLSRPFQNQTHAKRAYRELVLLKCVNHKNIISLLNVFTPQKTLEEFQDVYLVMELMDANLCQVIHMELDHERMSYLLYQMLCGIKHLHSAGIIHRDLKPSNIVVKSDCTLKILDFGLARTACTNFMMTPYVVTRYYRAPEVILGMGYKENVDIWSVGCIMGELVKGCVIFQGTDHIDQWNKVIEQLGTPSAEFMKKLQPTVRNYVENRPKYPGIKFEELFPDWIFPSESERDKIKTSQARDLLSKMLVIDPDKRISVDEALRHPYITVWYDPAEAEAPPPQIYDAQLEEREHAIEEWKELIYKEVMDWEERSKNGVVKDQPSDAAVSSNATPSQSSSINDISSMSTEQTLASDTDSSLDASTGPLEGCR

IC50 [1] [nM] | IC50 [2] [nM] | IC50 [3] [nM] | concentration at 2 h [4] [µM] | SMILES | IC50 (PBMC) [nM] | inhibition in vivo at 100 mg/kg (Mus musculus) [%]
12 | 700 | 649 | – | COCCOc1cncc(-c2cc3c(ccc4c5c([nH]c43)CCNC5=O)cn2)c1 | 260 | –
167 | – | – | – | O=C1NCCCc2[nH]c3c(ccc4cnc(-c5ccccc5OCCN5CCOCC5)cc43)c21 | > 3000 | –
80 | > 30000 | 3170 | – | O=C1NCCCc2[nH]c3c(ccc4cnc(-c5cncc(OCCN6CCOCC6)c5)cc43)c21 | 8600 | –
96 | 8300 | 2700 | – | COCCOc1cncc(-c2cc3c(ccc4c5c([nH]c43)CCCNC5=O)cn2)c1 | 8380 | –
72 | – | – | – | COc1ccc(-c2cc3c(ccc4c5c([nH]c43)CCCNC5=O)cn2)cc1 | 580 | –
14 | – | – | – | NCc1[nH]c2c(ccc3cnc(/C=C/c4ccccc4)cc32)c1C(=O)O | 735 | –
60 | – | – | – | CNCc1[nH]c2c(ccc3cnc(/C=C/c4ccccc4)cc32)c1C(=O)O | 1240 | –
25 | – | – | – | O=C1NOCc2[nH]c3c(ccc4cnc(/C=C/c5ccccc5)cc43)c21 | 46 | –
23 | 875 | 547 | – | COc1ccc(-c2cc3c(ccc4c5c([nH]c43)CN(C)NC5=O)cn2)cc1 | 2360 | –
10 | – | 2 | – | O=C1NCc2[nH]c3c(ccc4cnc(/C=C/c5ccccc5)cc43)c21 | 14 | –
8 | – | 22 | – | O=C1NCc2[nH]c3c(ccc4cnc(/C=C/c5ccc(CN6CCOCC6)cc5)cc43)c21 | 5 | –
10 | – | 34 | – | O=C1NCc2[nH]c3c(ccc4cnc(/C=C/c5cccc(CCN6CCOCC6)c5)cc43)c21 | 14 | –
73 | – | 1 | – | O=C1NCc2[nH]c3c(ccc4cnc(Nc5cccc(F)c5)cc43)c21 | 15 | –
27 | – | – | – | COc1ccc(-c2cc3c(ccc4c5c([nH]c43)CNC5=O)cn2)cc1 | 198 | –
85 | 5080 | 30 | – | O=C1NCc2[nH]c3c(ccc4cnc(-c5ccccc5F)cc43)c21 | 912 | –
900 | – | – | – | O=C1NCc2[nH]c3c(ccc4cnc(-c5ccccc5C(F)(F)F)cc43)c21 | – | –
32 | 1280 | 11 | – | O=C1NCc2[nH]c3c(ccc4cnc(-c5cccc(OCCN6CCOCC6)c5)cc43)c21 | 280 | –
5 | 9330 | 75 | – | O=C1NCc2[nH]c3c(ccc4cnc(-c5cncc(OCCN6CCOCC6)c5)cc43)c21 | 556 | –
5 | 1680 | 38 | – | COCCOc1cncc(-c2cc3c(ccc4c5c([nH]c43)CNC5=O)cn2)c1 | 416 | –
1190 | – | – | – | CN1Cc2[nH]c3c(ccc4cnc(/C=C/c5ccccc5)cc43)c2C1=O | – | –
1 | – | 198 | – | O=C1NCCc2[nH]c3c(ccc4cnc(/C=C/c5ccc(CN6CCOCC6)cc5)cc43)c21 | 9 | –
5 | – | 76 | – | O=C1NCCc2[nH]c3c(ccc4cnc(/C=C/c5cccc(CCN6CCOCC6)c5)cc43)c21 | 32 | –
15 | 500 | 1420 | – | COc1ccc(-c2cc3c(ccc4c5c([nH]c43)CCNC5=O)cn2)cc1F | 97 | –
16 | 1300 | 269 | – | O=C1NCCc2[nH]c3c(ccc4cnc(-c5cccc(OCCN6CCOCC6)c5)cc43)c21 | 294 | –
10 | 2500 | 418 | – | O=C1NCCc2[nH]c3c(ccc4cnc(-c5cncc(OCCN6CCOCC6)c5)cc43)c21 | 283 | –
160 | 5800 | 2200 | 13 | COc1ccc(-c2cc3c(ccc4c5c([nH]c43)CCC5=O)cn2)cc1F | 1400 | 73
116 | – | 85 | – | O=C1NCCCc2[nH]c3c(ccc4cnc(/C=C/c5ccccc5)cc43)c21 | 202 | –
253 | – | 980 | – | O=C1NCCCc2[nH]c3c(ccc4cnc(/C=C/c5ccc(CN6CCOCC6)cc5)cc43)c21 | 140 | –
172 | – | 700 | – | O=C1NCCCc2[nH]c3c(ccc4cnc(/C=C/c5cccc(CCN6CCOCC6)c5)cc43)c21 | > 1000 | –

— ChEMBL document CHEMBL1800003, “In vivo and in vitro SAR of tetracyclic MAPKAP-K2 (MK2) inhibitors. Part I” (Bioorg Med Chem Lett, 2010)
